Experimental data: patent publication US10570099B2, “Salts of an epidermal growth factor receptor kinase inhibitor” (Celgene CAR LLC, priority 2012, dated 2020)

Legend:
[1] = 1 week stability of primary screen salts at 40° C./75% RH and 80° C. (open vials, XRPD); assay type: physicochemical
Procedure: (open vials). TGA was carried out after the stability studies for samples containing sufficient material.

[2] = 1 week stability study (XRPD and HPLC); assay type: physicochemical; conditions: 1 week, listed as hydrobromide salt
Procedure: (§1) Resulting solids were analysed by XRPD and HPLC to establish if any changes had occurred.
as §1
The resulting solids were analysed by XRPD and HPLC to establish if any changes had occurred.

[3] = Administration to healthy volunteers (single dose PK study); assay type: in vivo, healthy male subjects; conditions: 50 mg dose, Regimen B
Description: The primary objective of the study is to compare the compound 1 pharmacokinetic (PK) profiles of single doses of Form I monohydrobromide formulations with that of the compound 1 free base in healthy adult males.
This is a single centre non-randomised, open-label, single dose study in healthy male subjects. Subjects will be screened for eligibility to participate in the study up to 28 days before dosing. The subjects will be admitted to the clinical unit at approximately 09:00 in the morning on the day prior to dosing (Day-1) and will remain on site until 24 h after each dose. Each subject will attend a follow-up visit 4 to 6 days after the final dose.
One group of 12 subjects will be dosed in an effort to obtain the data described above. Each subject will receive the following formulations in a crossover investigation. Dosing will be separated by at least 7 days. • Regimen A: 150 mg compound 1 (free base) capsule • Regimen B: 50 mg as active compound 2 (Form I HBr) tablet formulation • Regimen C: ≤150 mg as active compound 2 (Form I HBr) tablet formulation
All formulations will be dosed in the morning, following an overnight fast. Subjects will be allowed water up to 2 h before the scheduled dosing time and will be provided with 240 mL of water at 2 h post-dose. […]
Plasma concentration data will be tabulated and plotted for each subject for whom concentrations are quantifiable.

[4] = 40° C./75% RH, closed (crimped) vial

## Br.C=CC(=O)Nc1cccc(Nc2nc(Nc3ccc(N4CCN(C(C)=O)CC4)cc3OC)ncc2C(F)(F)F)c1 [Form I hydrobromide salt]
[1]
  Stability 40° C./75% RH (open conditions): No form change, slight
  Stability 80° C. (open conditions): No Form change.
[2]; [4]
  HPLC purity after storage: 97.2%
  XRPD after storage: No polymorphic form changes observed
[2]; 40° C./75% RH, open vial
  HPLC purity after storage: 97.2%
  XRPD after storage: No polymorphic form changes observed
[2]; 80° C., open vial
  HPLC purity after storage: 97.1%
  XRPD after storage: No polymorphic form changes observed
[3]
  patient-to-patient variability: less patient-to-patient variability
